Experiment in all cases: Fluorometric Ub-AMC Hydrolysis Assay
What all share (conditions): pH 7.5; 25 °C

For test [1], the target named is T1, Ubiquitin carboxyl-terminal hydrolase isozyme L3 (Homo sapiens, UniProt P15374).
T1 sequence (P15374 whole entry): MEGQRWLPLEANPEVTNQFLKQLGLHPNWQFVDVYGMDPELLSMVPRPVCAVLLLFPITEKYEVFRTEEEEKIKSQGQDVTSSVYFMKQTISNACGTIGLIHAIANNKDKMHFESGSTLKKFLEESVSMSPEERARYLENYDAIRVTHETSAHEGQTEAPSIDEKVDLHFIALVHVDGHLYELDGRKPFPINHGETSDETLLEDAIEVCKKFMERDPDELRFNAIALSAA
As to the method:
(§1) 2 nM UCHL1, UCHL5, USP15, USP2, or 2 pM UCHL3 were incubated with increasing concentrations of inhibitor in assay buffer for 5 min at room temperature. To initiate the reaction, 1 uM Ub-AMC was added and the fluorescence signal was detected for 60 s with a 380 nm excitation and 460 nm emission filter set.

The target of test [2] is T2, Ubiquitin carboxyl-terminal hydrolase isozyme L5 (Homo sapiens, UniProt Q9Y5K5).
T2 sequence (Q9Y5K5 whole entry): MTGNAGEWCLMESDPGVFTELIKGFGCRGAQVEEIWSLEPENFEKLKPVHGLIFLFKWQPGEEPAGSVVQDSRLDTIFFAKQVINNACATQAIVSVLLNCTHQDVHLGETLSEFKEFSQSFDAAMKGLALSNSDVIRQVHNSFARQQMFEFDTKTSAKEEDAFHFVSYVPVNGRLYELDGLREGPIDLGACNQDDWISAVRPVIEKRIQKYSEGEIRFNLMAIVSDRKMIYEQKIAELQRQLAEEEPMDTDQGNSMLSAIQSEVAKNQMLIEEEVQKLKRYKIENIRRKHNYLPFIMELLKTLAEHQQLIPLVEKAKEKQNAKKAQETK
Here is the method: as §1

Test [3] deals with T3, Ubiquitin carboxyl-terminal hydrolase 2 (Homo sapiens, UniProt O75604).
T3 sequence (O75604 whole entry): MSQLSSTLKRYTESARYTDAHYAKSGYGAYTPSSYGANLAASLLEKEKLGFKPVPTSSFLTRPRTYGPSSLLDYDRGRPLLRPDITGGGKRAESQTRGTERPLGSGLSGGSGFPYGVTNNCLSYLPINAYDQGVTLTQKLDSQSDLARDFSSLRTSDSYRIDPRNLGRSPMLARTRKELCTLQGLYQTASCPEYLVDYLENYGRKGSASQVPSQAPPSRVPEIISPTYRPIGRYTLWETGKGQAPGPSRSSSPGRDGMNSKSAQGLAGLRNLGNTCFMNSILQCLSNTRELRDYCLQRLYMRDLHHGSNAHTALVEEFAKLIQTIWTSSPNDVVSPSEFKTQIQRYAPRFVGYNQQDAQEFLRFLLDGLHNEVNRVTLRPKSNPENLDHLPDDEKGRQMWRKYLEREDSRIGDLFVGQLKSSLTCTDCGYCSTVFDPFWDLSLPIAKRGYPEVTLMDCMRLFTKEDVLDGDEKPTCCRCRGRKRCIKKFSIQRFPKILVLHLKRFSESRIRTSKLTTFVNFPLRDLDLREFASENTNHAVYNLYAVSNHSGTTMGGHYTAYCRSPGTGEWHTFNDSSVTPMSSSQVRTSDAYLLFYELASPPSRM
Here is the method:
as §1

Test [4] concerns the target T4, Ubiquitin carboxyl-terminal hydrolase isozyme L1 (Homo sapiens, UniProt P09936).
T4 sequence (P09936 whole entry): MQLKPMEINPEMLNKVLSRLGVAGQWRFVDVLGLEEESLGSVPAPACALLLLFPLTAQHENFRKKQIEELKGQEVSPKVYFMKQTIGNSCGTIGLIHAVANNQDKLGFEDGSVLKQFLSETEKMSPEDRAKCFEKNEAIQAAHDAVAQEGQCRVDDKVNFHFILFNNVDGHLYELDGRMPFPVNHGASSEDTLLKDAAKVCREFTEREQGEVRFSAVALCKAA
As to the method:
as §1

For test [5], the target named is T5, Ubiquitin carboxyl-terminal hydrolase 15 (Homo sapiens, UniProt Q9Y4E8).
T5 sequence (Q9Y4E8 whole entry): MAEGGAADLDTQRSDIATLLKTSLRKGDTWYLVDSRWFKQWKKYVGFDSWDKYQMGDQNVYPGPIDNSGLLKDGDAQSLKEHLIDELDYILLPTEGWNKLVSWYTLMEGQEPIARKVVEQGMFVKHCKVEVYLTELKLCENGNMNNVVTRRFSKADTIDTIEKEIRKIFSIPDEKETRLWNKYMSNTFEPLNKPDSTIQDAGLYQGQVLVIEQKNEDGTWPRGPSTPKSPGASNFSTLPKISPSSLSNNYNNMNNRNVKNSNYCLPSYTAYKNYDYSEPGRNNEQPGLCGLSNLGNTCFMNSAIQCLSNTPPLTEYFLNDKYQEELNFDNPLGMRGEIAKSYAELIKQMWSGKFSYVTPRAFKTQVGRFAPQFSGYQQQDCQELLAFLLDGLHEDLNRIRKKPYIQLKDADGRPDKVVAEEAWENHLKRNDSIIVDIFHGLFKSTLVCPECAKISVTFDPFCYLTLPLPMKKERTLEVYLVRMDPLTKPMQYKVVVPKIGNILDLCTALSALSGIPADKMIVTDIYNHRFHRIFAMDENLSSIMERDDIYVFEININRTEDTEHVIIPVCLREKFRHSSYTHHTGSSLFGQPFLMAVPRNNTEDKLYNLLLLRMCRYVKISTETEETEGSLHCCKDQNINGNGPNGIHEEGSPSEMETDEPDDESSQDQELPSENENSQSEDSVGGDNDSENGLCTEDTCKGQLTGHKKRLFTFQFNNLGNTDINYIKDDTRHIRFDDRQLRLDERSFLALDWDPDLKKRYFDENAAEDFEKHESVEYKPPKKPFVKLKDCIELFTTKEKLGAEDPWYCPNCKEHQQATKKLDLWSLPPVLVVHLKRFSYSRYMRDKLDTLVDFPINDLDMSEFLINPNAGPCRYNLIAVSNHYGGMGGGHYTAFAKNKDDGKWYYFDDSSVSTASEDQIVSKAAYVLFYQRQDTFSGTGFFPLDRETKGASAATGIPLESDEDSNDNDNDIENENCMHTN
As to the method: as §1

A value given as a limit tells only on which side of the number the result lay.

`CC1=C(O)C(=O)C=C2C1=CC=C1[C@@]2(C)CC[C@@]2(C)[C@@H]3C[C@](C)(C(=O)O)CC[C@]3(C)CC[C@]12C` [Celastrol]: the IC50 came out at 32.1 µM in test [1]; 56.6 µM in test [2]; 28.7 µM in test [3]; 6.8 µM in test [4]; 32.8 µM in test [5].
For `Cc1cnc(-c2ccccc2C(C)C)nc1NCc1ccc(-n2ccnn2)cc1`, the IC50 in test [1], in test [2] and in test [3] was more than 114 µM throughout.
Turning to `CC(=O)ON=C1C(=O)N(Cc2cc(Cl)ccc2Cl)c2ccc(Cl)cc21` [5-Chloro-1-[(2,5-dichlorophenyl)methyl]-1H-indole-2,3-dione 3-(O-acetyloxime)], the results for the IC50 in test [1] and in test [2] were 14.1 µM and 16.2 µM, respectively.
As to `CO[C@H]1/C=C/O[C@@]2(C)Oc3c(C)c(O)c4c(c3C2=O)C(=O)/C(=C/NN2CCN(C)CC2)C(=C4O)NC(=O)/C(C)=C\C=C\[C@H](C)[C@H](O)[C@@H](C)[C@@H](O)[C@@H](C)[C@H](OC(C)=O)[C@@H]1C` [Rifampicin], the IC50 worked out at 24.8 µM in test [1]; 62.8 µM in test [2]; 21.2 µM in test [3]; 19.5 µM in test [4]; 46.1 µM in test [5].
Taken in the same sequence, the figures for `CC(=O)Oc1c2c(c(CC=C(C)C)c3c1C(=O)C1=C[C@@H]4CC5C(C)(C)OC(C/C=C(\C)C(=O)O)(C4=O)[C@@]15O3)OC(C)(CCC=C(C)C)C=C2` (stereo not given in full) were 15.4 µM, 36.5 µM, 18.2 µM, 5.4 µM and 11.1 µM.

The values above are taken from BindingDB's records for doi:10.1021/acschembio.7b00543 (University of Delaware, 2017).
